Target: T1, human Nav1.7 (Homo sapiens, UniProt Q15858)
T1 construct: expressed in transfected cells
Experiment: Assessment of Nav1.7 activity on PatchXpress (voltage dependence / slow inactivation parameters)
Assay type: cell-based
Conditions: compound at 10 μM, relative to 0.2% DMSO vehicle control; for hNav1.7: Reduction in current at 20 mV (normalized data) Delta Ratio: before/after 30 sec conditioning pulse at 20 mV; for hNav1.7: Shift in voltage dependence of inactivation (mV) Delta Vhalf: PatchXpress
Method: The generation of a HEK 293F cell line stably expressing human Nav1.7/Navp1 was achieved by co-transfecting human SCN9A and human SCN1B cDNAs, subcloned into plasmid vectors, utilizing standard transfection techniques. Clones were selected using appropriate selection agents (0.3 mg/mL Zeocin and 0.8 mg/mL Geneticin) and maintained in Dulbecco's Modified Eagle medium, 10% fetal bovine serum, 1% non-essential amino acids to ˜80% confluence at 37° C. in a humidified incubator with 95% atmosphere and 5% CO2.
On the day of each experiment, cells that were grown to 80% confluence in a T75 flask were harvested for use on PatchXpress (Molecular Devices, CA, USA). Following a recovery period at 37° C. in a humidified incubator with 95% atmosphere and 5% CO2 in Dulbecco's Modified Eagle Medium, the media was replaced with an external recording solution containing (in mM): 90 TEACI, 50 NaCl, 1.8 CaCl2, 1 MgCl2, 10 HEPES, 10 glucose, adjusted to pH 7.4 with TEAOH and 300 mOsm with sucrose. The internal recording solution contained (in mM): 129 CsF, 2 MgCl2, 11 EGTA, 10 HEPES, 6 NaCl, 3 Na2ATP adjusted to pH 7.2 with CsOH and 280 mOsm with sucrose. The automated liquid handling facility of PatchXpress dispensed cells and added compound. Modulation of Nav1.7 channels by compounds was assessed by promoting the channels into the inactivated state using a conditioning voltage pulse of variable amplitude, followed by a brief hyperpolarizing pulse with a subsequent depolarized voltage step to measure the current amplitude in the presence and absence of compound. Compounds were assayed at 10 μM. Based upon this Patch express protocol, four electrophysiological parameters were measured relative to a 0.2% DMSO vehicle control (Table 2).

T1 sequence (Q15858 whole entry): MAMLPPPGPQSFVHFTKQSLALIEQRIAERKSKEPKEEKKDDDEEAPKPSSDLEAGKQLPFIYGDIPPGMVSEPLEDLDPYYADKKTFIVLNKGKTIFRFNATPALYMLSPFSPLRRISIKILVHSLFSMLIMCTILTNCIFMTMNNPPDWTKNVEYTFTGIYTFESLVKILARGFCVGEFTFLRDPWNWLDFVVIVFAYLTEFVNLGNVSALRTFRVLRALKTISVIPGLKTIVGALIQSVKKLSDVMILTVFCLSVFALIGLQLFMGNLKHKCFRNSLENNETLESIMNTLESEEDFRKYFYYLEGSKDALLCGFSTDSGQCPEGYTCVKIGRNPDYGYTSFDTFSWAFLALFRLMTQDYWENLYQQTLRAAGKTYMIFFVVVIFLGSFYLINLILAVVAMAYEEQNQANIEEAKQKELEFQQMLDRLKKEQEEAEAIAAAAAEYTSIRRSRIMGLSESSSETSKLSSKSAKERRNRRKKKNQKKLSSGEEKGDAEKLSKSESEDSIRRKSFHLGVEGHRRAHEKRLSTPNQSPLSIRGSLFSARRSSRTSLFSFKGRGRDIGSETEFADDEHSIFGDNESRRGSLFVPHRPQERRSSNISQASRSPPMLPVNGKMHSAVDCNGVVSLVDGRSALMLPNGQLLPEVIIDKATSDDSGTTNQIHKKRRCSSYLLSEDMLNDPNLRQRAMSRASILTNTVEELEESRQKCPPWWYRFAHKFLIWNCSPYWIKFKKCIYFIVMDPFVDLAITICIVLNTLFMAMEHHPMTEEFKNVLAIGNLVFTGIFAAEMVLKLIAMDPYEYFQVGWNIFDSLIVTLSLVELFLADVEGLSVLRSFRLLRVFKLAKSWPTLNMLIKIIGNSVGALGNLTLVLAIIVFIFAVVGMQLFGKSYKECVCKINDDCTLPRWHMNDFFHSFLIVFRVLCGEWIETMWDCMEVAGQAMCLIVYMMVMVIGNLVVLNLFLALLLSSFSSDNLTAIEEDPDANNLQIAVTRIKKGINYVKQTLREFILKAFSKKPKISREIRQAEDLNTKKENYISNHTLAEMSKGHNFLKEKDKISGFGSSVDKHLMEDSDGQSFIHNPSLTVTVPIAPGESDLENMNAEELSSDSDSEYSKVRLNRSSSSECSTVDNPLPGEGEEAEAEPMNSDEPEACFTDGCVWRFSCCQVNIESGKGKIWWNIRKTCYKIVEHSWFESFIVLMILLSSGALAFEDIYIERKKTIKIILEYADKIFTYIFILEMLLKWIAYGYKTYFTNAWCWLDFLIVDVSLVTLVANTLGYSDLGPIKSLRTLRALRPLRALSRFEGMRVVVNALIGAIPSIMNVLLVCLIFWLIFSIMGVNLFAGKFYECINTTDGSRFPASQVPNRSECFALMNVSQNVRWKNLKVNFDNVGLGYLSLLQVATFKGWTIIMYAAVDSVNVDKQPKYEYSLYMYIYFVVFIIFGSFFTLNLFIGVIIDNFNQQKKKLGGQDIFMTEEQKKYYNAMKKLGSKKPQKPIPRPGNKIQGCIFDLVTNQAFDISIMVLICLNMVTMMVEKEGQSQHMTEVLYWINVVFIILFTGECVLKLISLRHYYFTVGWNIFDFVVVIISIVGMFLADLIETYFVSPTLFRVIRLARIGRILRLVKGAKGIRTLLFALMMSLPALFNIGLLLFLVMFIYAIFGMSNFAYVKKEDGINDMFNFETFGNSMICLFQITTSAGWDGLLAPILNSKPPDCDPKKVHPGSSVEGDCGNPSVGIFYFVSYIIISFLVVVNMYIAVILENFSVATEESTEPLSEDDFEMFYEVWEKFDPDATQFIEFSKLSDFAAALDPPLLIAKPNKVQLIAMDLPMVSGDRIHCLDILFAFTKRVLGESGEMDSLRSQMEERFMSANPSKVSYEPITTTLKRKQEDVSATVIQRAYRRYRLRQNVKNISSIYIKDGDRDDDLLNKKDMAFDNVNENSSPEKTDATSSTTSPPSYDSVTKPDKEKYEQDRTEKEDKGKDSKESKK
T1 sequence (Q07699 19-218 partner): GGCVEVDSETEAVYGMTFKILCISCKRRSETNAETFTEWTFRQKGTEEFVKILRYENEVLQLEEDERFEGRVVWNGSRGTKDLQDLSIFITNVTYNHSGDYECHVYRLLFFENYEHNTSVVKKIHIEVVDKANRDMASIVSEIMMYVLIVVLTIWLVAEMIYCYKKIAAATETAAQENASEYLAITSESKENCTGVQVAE

Row | SMILES | hNav1.7: Reduction in current at 20 mV (normalized data) Delta Ratio | hNav1.7: Voltage dependence of activation (mV) VDEP [mV] | hNav1.7: Voltage dependence of fast inactivation (mV) VDEP [mV] | hNav1.7: Shift in voltage dependence of inactivation (mV) Delta Vhalf [mV]
1 | NC1(c2nc3cc(C(F)(F)F)cc(C(F)(F)F)c3[nH]2)Cc2ccccc2C1 [Compound 52, 2-(4,6-bis(trifluoromethyl)-1H-benzo[d]imidazol-2-yl)-2,3-dihydro-1H-inden-2-amine] | −0.28 | −7.2 | −8.2 | −14.9
2 | CC(C)(CN1CCNCC1=O)c1nc2cc(F)cc(F)c2[nH]1 [Compound 70, 1-(2-(4,6-difluoro-1H-benzo[d]imidazol-2-yl)-2-methylpropyl)piperazin-2-one] | −0.08 | −5.3 | −5.7 | −4.6
3 | N[C@H](Cc1cccc(F)c1)c1nc2cc(C(F)(F)F)cc(C(F)(F)F)c2[nH]1 [Compound 55, (R)-1-(4,6-bis(trifluoromethyl)-1H-benzo[d]imidazol-2-yl)-2-(3-fluorophenyl)ethan-1-amine] | −0.26 | −8.6 | −6.2 | −15.1
4 | N[C@H](Cc1ccc(F)cc1)Cc1nc2cc(C(F)(F)F)cc(C(F)(F)F)c2[nH]1 [Compound 56, (R)-1-(4,6-bis(trifluoromethyl)-1H-benzo[d]imidazol-2-yl)-3-(4-fluorophenyl)propan-2-amine] | −0.21 | −14.4 | −3.3 | −16.8
5 | FC(F)(F)c1cc(C(F)(F)F)c2[nH]c(C3NCc4ccccc43)nc2c1 (stereo not drawn) [Compound 59, 2-(isoindolin-1-y)-4,6-bis(trifluoromethyl)-1H-benzo[d]imidazole] | −0.2 | −9 | −5.9 | −12.8
6 | N[C@H](Cc1cccc(C(F)(F)F)c1)C(=O)NCc1nc2ccc(Br)cc2[nH]1 [Compound 74, (R)-2-amino-N-((6-bromo-1H-benzo[d]imidazol-2-yl)methyl)-3-(3-(trifluoromethyl)phenyl)propanamide] | −0.07 | −3.7 | −8.8 | −7.4
7 | Cc1cccc(C)c1OCC(C)NC(=O)C(C)(C)N1CCNCC1=O (stereo not drawn) [Compound 37, N-(1-(2,6-dimethylphenoxy)propan-2-yl)-2-methyl-2-(2-oxopiperazin-1-yl)propanamide] | −0.09 | −9.00 | −6.30 | −5.00
8 | CC(C)CC(N)C(=O)N[C@H](COc1cc(C(F)(F)F)cc(C(F)(F)F)c1)c1ccccc1 (stereo partly drawn) [Compound 4, 2-amino-N-((S)-2-(3,5-bis(trifluoromethyl)phenoxy)-1-phenylethyl)-4-methylpentanamide] | −0.27 | −5.80 | −11.50 | −31.10
9 | Cc1cccc(C)c1OCC(C)NC(=O)[C@@H](N)CC(C)C (stereo partly drawn) [Compound 3, (2S)-2-amino-N-(1-(2,6-dimethylphenoxy)propan-2-yl)-4-methylpentanamide] | −0.28 | −8.10 | −7.40 | −28.00
10 | CC12CC3CC(C)(C1)CC(NC(=O)[C@H]1CCCN1)(C3)C2 [Compound 43, (2R)-N-(3,5-dimethyladamantan-1-yl)pyrrolidine-2-carboxamide] | −0.12 | −11.40 | −5.70 | −8.50
11 | C[C@@H](NC(=O)[C@H]1CCCN1)c1ccc(OCC(F)(F)F)cn1 [Compound 83, (R)-N-((R)-1-(5-(2,2,2-trifluoroethoxy)pyridin-2-yl)ethyl)pyrrolidine-2-carboxamide] | 0.01 | −3.1 | −0.5 | −1.5
12 | CC(C)C[C@H](N)CC(=O)NCCOc1cc(F)cc(C(F)(F)F)c1 [Compound 18, (S)-3-amino-N-(2-(3-fluoro-5-(trifluoromethyl)phenoxy)ethyl)-5-methylhexanamide] | −0.09 | −2.60 | −3.90 | −11.90
13 | N[C@@H](Cc1ccccc1)Cc1nc2cc(C(F)(F)F)cc(C(F)(F)F)c2[nH]1 [Compound 53, (S)-1-(4,6-bis(trifluoromethyl)-1H-benzo[d]imidazol-2-yl)-3-phenylpropan-2-amine] | −0.28 | −8.2 | −3.9 | −7.2
14 | N[C@H]1CCCC[C@H]1C(=O)NCCOc1cc(C(F)(F)F)cc(C(F)(F)F)c1 [Compound 8, (1R,2S)-2-amino-N-(2-(3,5-bis(trifluoromethyl)phenoxy)ethyl) cyclohexane-1-carboxamide] | −0.23 | −7.80 | −6.80 | −16.40
15 | CC(C)(CN1CCNCC1=O)c1nc2cc(C(F)(F)F)cc(C(F)(F)F)c2[nH]1 [Compound 65, 1-(2-(4,6-bis(trifluoromethyl)-1H-benzo[d]imidazol-2-yl)-2-methylpropyl)piperazin-2-one] | −0.16 | −8.1 | −6.2 | −3.5
16 | Cc1cccc(C)c1OCC(C)NC(=O)[C@H](N)C(C)C (stereo partly drawn) [Compound 12, (2R)-2-amino-N-(1-(2,6-dimethylphenoxy)propan-2-yl)-3-methylbutanamide] | −0.19 | −7.30 | −4.30 | −25.70
17 | O=C(NCCOc1cc(C(F)(F)F)cc(C(F)(F)F)c1)[C@H]1CCCN1 [Compound 11, (R)-N-(2-(3,5-bis(trifluoromethyl)phenoxy)ethyl) pyrrolidine-2-carboxamide] | −0.20 | −5.00 | −3.90 | −19.70
18 | COC[C@@H](NC(C)=O)C(=O)NCc1cc(C(F)(F)F)cc(C(F)(F)F)c1 [Compound 79, (R)-2-acetamido-N-(3,5-bis(trifluoromethyl)benzyl)-3-methoxypropanamide] | −0.04 | −15.2 | −7.9 | −5.8

Source: US20170107203A1, “HETEROCYCLIC INHIBITORS OF THE SODIUM CHANNEL” (EPIRUS BIOPHARMACEUTICALS, INC., priority 2014, published 2017)
